Source: patent US20180250270A1, “MUSCARINIC COMBINATION AND ITS USE FOR COMBATING HYPOCHOLINERGIC DISORDERS OF THE CENTRAL NERVOUS SYSTEM” (Chase Pharmaceuticals Corporation, priority 2015, published 2018)
Read-outs that look alike come from different tables or passages of the source.

Key:
muscarinic receptors = details: cited from earlier work
[1] = primate study; cited from earlier work
[2] = system: peripheral cholinergic receptors; details: rats; cited from earlier work
[3] = system: peripheral cholinergic receptors; details: monkeys; cited from earlier work
[4] = clinical trials for Alzheimer disease; cited from earlier work
[5] = cited from earlier work
[6] = 6-month double-blind, placebo-controlled, parallel group trial of xanomeline in patients with Alzheimer disease; type: in vivo, human; details: in view of Mirza et al 2003; i.e. 225 mg/day
Description: A close analog of tazomeline, the 3-(4-hexyloxy-1,2,5-thiadiazol-3-yl)-1-methyl-5,6-dihydro-2H-pyridine known as xanomeline and described in U.S. Pat. No. 5,043,345, the disclosure of which is incorporated herein by reference in its entirety, has been disclosed as a muscarinic acetylcholine receptor agonist with reasonable selectivity for the M1 and M4 subtypes. The efficacy of xanomeline, which stimulates muscarinic receptors in the brain and in the periphery was studied in patients with Alzheimer disease in a 6-month double-blind, placebo-controlled, parallel group trial. […] Such side effects prevented the use of doses of xanomeline that could achieve maximum anti-dementia efficacy and reflect stimulation of cholinergic receptors outside the brain.
Dose-limiting adverse events attending the use of drugs that stimulate cholinergic transmission, such as xanomeline, appear to primarily reflect the excessive stimulation of peripheral cholinergic receptors, especially those of the muscarinic type (mAChRs), such that in both healthy volunteers and Alzheimer's patients many of these side effects have been reported for xanomeline; in the patient population this led to a discontinuation rate higher than 50% while the effects on cognition were not robust and mainly seen at the highest doses tested (Mirza 2003).

[7] = cited from earlier work; remark: listed apart in the source

Q: What does the source list for `CCCCSc1nsnc1[C@H]1CN2CCC[C@H]1C2` [BuTAC, (5R,6R)-6-(3-butylthio-1,2,5-thiadiazol-4-yl)-1-azabicyclo[3.2.1]octane]?
A: affinity for muscarinic receptors (muscarinic receptors): high affinity; vomiting [1]: induced vomiting

Q: What does the source list for `CO/N=C/C1=CCCN(C)C1` [milameline, (E)-N-methoxy-1-(1-methyl-1,2,5,6-tetrahydropyridin-3-yl)methanimine]?
A: doses producing central cholinergic action relative to peripheral action [2]: at doses slightly higher than those stimulating peripheral cholinergic receptors; doses producing central cholinergic action relative to peripheral action [3]: at doses slightly higher than those stimulating peripheral cholinergic receptors; maximum tolerated dose [4]: 2 mg four times per day

Q: With `CCCCCCOc1nsnc1C1=CCCN(C)C1` [xanomeline, 3-(4-hexyloxy-1,2,5-thiadiazol-3-yl)-1-methyl-5,6-dihydro-2H-pyridine] as the molecule, how does the MTD ([5]; defined by Sramek et al.) read?
A: 100 mg three times a day

Q: What about the minimum intolerated dose ([5]; human, in vivo) of the same molecule?
A: 115 mg three times a day

Q: What about the “maximum tolerated dose as considered in the context of the invention” value [6] of the same molecule?
A: 75 mg three times per day

Q: And the “patients who discontinued treatment” value ([7]; 75 mg xanomeline orally three times daily, mainly adverse events, predominantly gastrointestinal)?
A: 59%

Q: And the “cognitive and behavioral symptoms of Alzheimer disease compared to placebo” value ([7]; 6-month trial)?
A: significantly improve

Q: And the discontinuation rate ([7]; Alzheimer's patient population (Mirza 2003))?
A: higher than 50%

Q: What about the side effects ([7]; bradycardia, gastro-intestinal distress, excessive salivation, sweating) of the same molecule?
A: dose-dependent unacceptable side effects
